PubChem BioAssay (NCI)
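At the GI50, growth is halved. TGI is the concentration that stops growth completely.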

Columns and labels:
Assay in all cases: NCI anticancer screen, dose series, 384-well format
UACC-62 melanoma = test system: UACC-62 melanoma
SK-OV-3 ovarian = test system: SK-OV-3 ovarian
DU-145 prostate = test system: DU-145 prostate
OVCAR-5 ovarian = test system: OVCAR-5 ovarian
HOP-92 NSCLC = test system: HOP-92 NSCLC
UACC-257 melanoma = test system: UACC-257 melanoma
NCI-H522 lung = test system: NCI-H522 lung
SF-295 CNS = test system: SF-295 CNS
U251 glioblastoma = test system: U251 glioblastoma
K-562 leukemia = test system: K-562 leukemia
SR leukemia = test system: SR leukemia
RXF 393 renal = test system: RXF 393 renal
IGROV1 ovarian = test system: IGROV1 ovarian

Row | SMILES | GI50 (UACC-62 melanoma) [µM] | TGI (UACC-62 melanoma) [µM] | GI50 (SK-OV-3 ovarian) [µM] | TGI (SK-OV-3 ovarian) [µM] | GI50 (DU-145 prostate) [µM] | TGI (DU-145 prostate) [µM] | GI50 (OVCAR-5 ovarian) [µM] | TGI (OVCAR-5 ovarian) [µM] | GI50 (HOP-92 NSCLC) [µM] | TGI (HOP-92 NSCLC) [µM] | GI50 (UACC-257 melanoma) [µM] | TGI (UACC-257 melanoma) [µM] | GI50 (NCI-H522 lung) [nM] | TGI (NCI-H522 lung) [µM] | GI50 (SF-295 CNS) [nM] | TGI (SF-295 CNS) [µM] | GI50 (U251 glioblastoma) [µM] | TGI (U251 glioblastoma) [µM] | GI50 (K-562 leukemia) [µM] | TGI (K-562 leukemia) [µM] | further results
1 | COc1cc2nccc(Oc3ccc(NC(=O)C4(C(=O)Nc5ccc(F)cc5)CC4)cc3)c2cc1OC | 2.23 | 6.52 | 4.97 | 15.8 | 4.85 | 31.5 | 2.96 | 10.7 | 1.29 | 4.93 | 4.62 | 12.6 | 2790 | 7.77 | 1080 | 6.02 | 5.32 | 17.9 | 0.295 | 1.07 | GI50 (SR leukemia): 2950 nM; TGI (SR leukemia): 4490 nM; GI50 (RXF 393 renal): 2.73 µM; TGI (RXF 393 renal): 5.49 µM; GI50 (IGROV1 ovarian): 1.64 µM; TGI (IGROV1 ovarian): 3.8 µM
2 | O=C(Nc1cccc(C(F)(F)F)c1)Nc1cc(S(=O)(=O)NC2CC2)ccc1-c1ccsc1 | 7.26 | 19.5 | 7.67 | 19.8 | 6.35 | 16.4 | 13.8 | 26.8 | 3.36 | 10.5 | 2.89 | 8.51 | 2690 | 8.11 | 2960 | 9.42 | 3.43 | 11.3 | 3.45 | 11.5 | GI50 (SR leukemia): 863 nM; TGI (SR leukemia): 2190 nM; GI50 (RXF 393 renal): 3.28 µM; TGI (RXF 393 renal): 12.1 µM; GI50 (IGROV1 ovarian): 8.86 µM; TGI (IGROV1 ovarian): 21.7 µM
3 | CN(C)C(=O)c1cc2cnc(Nc3ccc(N4CCNCC4)cn3)nc2n1C1CCCC1 | 18.2 | > 63.7 | > 80.2 | > 100 | 16.7 | 43.9 | 10.8 | 85.3 | 11.9 | 57.4 | 47.6 | > 69.7 | 29500 | 82.2 | 23100 | 57.4 | 30.8 | > 46.4 | 10.8 | 29.7 | GI50 (SR leukemia): 507 nM; TGI (SR leukemia): 1970 nM; GI50 (RXF 393 renal): 17.5 µM; TGI (RXF 393 renal): 31 µM; GI50 (IGROV1 ovarian): 26.2 µM; TGI (IGROV1 ovarian): 98.8 µM
